Reference: patent publication US20230107216A1, “PANTETHEINE DERIVATIVES AND USES THEREOF” (Comet Therapeutics, Inc., priority 2018, published 2023)
Like-named read-outs stand apart in the source and are kept apart here.

Legend:
[1] = Treg differentiation assay; assay type: cell-based; settings: human
Procedure: Naïve CD4+ T cells (Stemcell, 17555) were isolated from PBMC and placed (20,000 cells/well) in 10 μg/ml anti-CD3 antibody (eBioscience, 16-0037-85) pre-coated 96-well flat bottom plate (Eppendorf, Cat #30730119) for 3 hours at 37° C. in an X-VIVO15 medium (Lonza, 04-418Q) supplemented with 15% FBS (Hyclone SV30087.03) and 1% Penicillin-Streptomycin (Hyclone, SV30010). Treg induction cocktail was added including 2 μg/ml anti-CD28 (eBioscience 16-0289-85), 20 ng/ml IL-2 (R&D, 202-IL-050) 0.2 ng/ml TGF-β1 (Peprotech, 100-21-50) in the presence of the compounds at 10 and 50 μM dose. On day 3 half of the medium, was refreshed with Treg differentiation cocktail as above and compounds (10 and 50 μM). On day 5 cells were collected and the following staining were performed: live/dead (Invitrogen, L34963), and Foxp3/Transcription Factor Staining Buffer Set (EBioscience, 00-5523-00), mouse anti-human FoxP3 (BD, 560046) or mouse IgG1, κIsotype control (BD, 555749) and analyzed by FACS (BD LSR Fortessa, 853492).

[2] = tested on: HepG2 cells; assay: MitoBiogenesis In-Cell ELISA (COX-I, SDH-A); assay type: cell-based; settings: Homo sapiens, 168 h, 10 uM, 7 days, read-out: % increase in Mitochondrial Biogenesis
Text: We determined the effect of compounds of the present disclosure on the levels of two mitochondrial proteins using MitoBiogenesis™ In-Cell ELISA Kit (Abcam ab110216) according to manufacturer's instructions. The two proteins are each subunits of a different oxidative phosphorylation enzyme complex, one protein being subunit I of Complex IV (COX-1), which is mitochondrial (mt)DNA-encoded, and the other being the 70 kDa subunit of Complex II (SDH-A), which is nuclear (n)DNA-encoded. Complex IV includes several proteins which are encoded in the mitochondrion, while the proteins of Complex II are entirely encoded in the nucleus. HepG2 cells (ATCC, HB-8065) were cultured (5% CO2 at 37° C.) and plated in Poly-D-Lysine 384-Well plate (Corning, 356663) at a density of 40,000 cells/mL in 50 μL. Culture and assay media consisted of DMEM (Gibco, 11995-065) supplemented with 1% Penicillin-Streptomycin and 10% FBS (Hyclone, SV30087.03). Cells were allowed to settle for 30 min at room temperature and further incubated overnight (37° C. and 5% CO2) for adherence. Next day, 50-5 μM of the negative control Chloramphenicol (Selleck, S1677), test compounds (50-10 μM) and vehicle DMSO (0.2%) were added at the recommended volumes to the 384-well plate for 7 days without media change using a Tecan compound dispenser. All the solutions and wash buffers were prepared and dispensed according to manufacturer's volumes for a 384-well plate format. Effects of compounds on mtDNA-encoded protein expression (COX-I) and nuclear DNA-encoded mitochondrial protein expression (SDH-A) were expressed as relative signal (nm) to vehicle of a n=2 per conditions.

[3] = tested on: monocyte-derived M1 macrophages; assay: M1 differentiation assay (macrophage TNFα, IL6, IL10 ELISA, FACS); assay type: cell-based, human; settings: Homo sapiens, Macrophage, 10 uM
Method in brief: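 CD14+ human blood monocytes (100,000) differentiated 6 days with 10 ng/ml GM-CSF plus compound at 10 or 50 μM, refreshed days 2 and 4. Matured 24 h with GM-CSF, IFNγ, LPS plus compound. Supernatant TNFα, IL6, IL10 by ELISA; FACS M1 phenotype CD86+CD68+CD163−.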

[4] = tested on: primary fibroblasts (healthy controls and PA, MMA, BCKDK, PDH, VLCAD, LS, PC, GA, VLCFA, KSS, FXN, HD); assay: Measurement of ROS (H2DCFDA) in primary fibroblasts; assay type: cell-based, human; settings: Homo sapiens, Fibroblast, BCKD GM00649, procedure Example 812, Assay Condition C
Method in brief: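 Patient and healthy-control primary fibroblasts switched to supplemented DMEM 24 h before assay, then treated with compound (10 μM) plus H2DCFDA (22 μM) for 2 h (PA, MMA lines) or 24 h (other lines). Kinetic fluorescence at 492/527 nm over 60 min; only live cells analysed.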

[5] = Deuterated and endogenous Coenzyme A in tissues after single and multiple dosing to vitamin B5-deprived mice (LC-MS/MS); assay type: in vivo, C57BL/6N mice
Procedure: Example 22: Determining Deuterated and Endogenous Coenzyme A in Various Tissues after Single and Multiple Dosing of Compound 1216 to Vitamin B5-Deprived Male C57BL/6N Mice
C57BL6/J male mice were placed on a Vitamin B5 deprived diet for 2 weeks prior to the start of dosing with Compound 1216, single or multiple dosing with either IV or oral administration. […]
The test item and vehicle were administered to the appropriate animals via intravenous (slow bolus) injection to the tail vein (Groups 1-5). In Group 6 test item was administered via oral gavage. The dose volume for each animal was based on the most recent body weight measurement. The animals were temporarily restrained for dose administration and were not sedated. The dose was given using a disposable needle and syringe (intravenous administration) or a stainless steel tube (oral gavage). The dosing formulations were stirred continuously during dose administration, when possible.
Tissue samples were directly removed after sacrifice, together with plasma and CSF and immediately snap frozen in liquid nitrogen and stored at −80° C. […].
Ultrapure water (UPW) was added to the tissue in a 3:1 ratio (e.g. 1 gr tissue+3 ml UPR) and homogenized for 2 minutes at 30/s with 3 beads using a bead mill. Samples were placed on ice and 200 mg weighed in a 2 ml PP tube. 20 μL 50 mM TCEP was added to the sample and vortexed and placed on ice water for 30 minutes. Subsequently 100 μL Perchloric acid was added and the samples was again vortexed and centrifuged for 5 min at 13000 ref (4° C.). Then 225 μL of the supernatant was transferred to a 1.5 mL PP tube. Then 50 μL 3M KOH was added, vortexed and incubated for 2h on ice water. Then 50 μL 3M HCl was added and again vortexed and centrifuged for 5 min at 13000 rcf (4° C.). 100 μL of the supernatant was transferred to a 1.5 mL PP tube, 150 μL UPW was added, and the samples was again vortexed. Then 200 μL of the supernatant was transferred to a 96-wells plate and the samples were ready for measurement. […]

Row | Structure (SMILES) | percent decrease in viable Treg cells at 5 days, 50 µM [1] [%] | activation at 10 µM [2] [%] | activation at 10 µM ([3]; read-out: % Increase in IL-10 Secretion) [%] | inhibition at 10 µM ([3]; read-out: % decrease in Macrophage IL-6 Secretion) [%] | inhibition at 10 µM ([3]; read-out: % decrease in Macrophage TNFα Secretion) [%] | inhibition at 10 µM ([4]; read-out: Decreased ROS by at least 10%) [%] | inhibition at 10 µM ([4]; read-out: Decreased ROS by at least 30%) [%] | Levels of labeled CoA in liver and kidney ([5]; multiple IV doses) | Presence of deuterated (labelled) CoA in three brain regions and other organs over time ([5]; multiple IV doses, up to 24 hours after last dose) | Deuterated (labelled) CoA in cerebellum, cerebrum, remainder of the brain, liver, heart and kidney ([5]; multiple doses (either 3 or 5, IV and oral) of 102.8 mg/kg every 12 hours, vitamin B5-deprived mice, 15 minutes after last dose)
1 | C/C=C/C(=O)SCCNC(=O)CCNC(=O)[C@H](O)C(C)(C)CO [Compound 35, (R)—S-(2-(3-(2,4-dihydroxy-3,3-dimethylbutanamido)propanamido)ethyl) (E)-but-2-enethioate] | ≥ 30 | > 5 | ≥ 30 | ≥ 30 | ≥ 30 | ≥ 10 | ≥ 30 |  |  | 
2 | [2H]C([2H])([2H])C(COP(=O)(O)O)(C(O)C(=O)NCCC(=O)NCCSC(C)=O)C([2H])([2H])[2H] (stereo not shown) [Compound 1216, S-acetyl-4′-phosphopantetheine-D6] |  |  |  |  |  |  |  | high levels of labeled CoA | prolonged presence of deuterated (labelled) CoA | results in deuterated (labelled) CoA
